Measured values as given in patent EP2345639A1, “Cyclic hydroxylamine derivatives, their preparation and use as antioxidants” (ABIOGEN PHARMA S.p.A., priority 2009, dated 2011).
Where two headings read alike, the source gives them in different places.

Columns and labels:
[1] = TEAC method (Trolox Equivalent Antioxidant Capacity Assay); type: biochemical; settings: ratio of gradient to gradient of Trolox; 650 nm, 37 °C, about 90 minutes
Excerpt: This assay is used to measure the total antioxidant activity of pure substances, biological fluids and plant compounds and is based on the reaction of antioxidants with the cation radical ABTS·^+ (2,2'-azinobis(3-ethylbenzothiazolin-6-sulphonate)). This cation radical is metastable and has to be generated just before the experiment by reacting ABTS with hydrogen peroxide in the presence of HRP. This radical can be reduced, with consequent loss of absorbance, by an antioxidant whose scavenging capacity can be measured spectrophotometrically at 650 nm. The test is carried out at 37 °C and the results are obtained from a comparison with Trolox (a synthetic antioxidant and hydrophilic analogue of vitamin E).
The ABTS solution S1 was prepared as follows: • 20 mg of ABTS were added to 50 mM of citric acid buffer (40 ml) at pH=4.5 and to the resulting solution there was added an aqueous solution of HRP (4.4 mg, 400 µl) and an aqueous solution of H2O2 (10 µl of a 30% solution diluted with 16.3 ml of water).
For each of the compounds (1)-(11), as synthesized above, there was prepared a 600 µM solution in water, methanol or DMSO according to its solubility, as well as a Trolox solution as reference.
Each solution was diluted to produce 6 solutions each at a concentration between 25 µM and 300 µM. From each of the diluted and divided solutions, there were withdrawn 20 µl to which 200 µl of solution S1 were then added.
The decrease in absorbance of each solution thus obtained was monitored at 650 nm until a stable value was reached (about 90 minutes).
For each set of 6 solutions and for the reference trolox solution, the absorption was given in graph form as a function of the amount of compound (nmol) in the solution. The gradient of the straight line obtained by linear interpolation was determined according to the least squares method. The TEAC value of each compound of the invention is given in the table below and is expressed as the ratio between the gradient of the resulting straight line and the gradient of the reference (trolox) straight line.

[2] = system: doxorubicin-induced cerebral oxidative stress in mice; assay: In vivo assay of cerebral oxidative stress induced in mice by doxorubicin (model and oxidized animals); settings: for inhibition in vivo at 50 mg/kg / change in vivo at 50 mg/kg: Mus musculus; for inhibition in vivo at 50 mg/kg: overall, read-out: inhibition of the doxorubicin effect; for change in vivo at 50 mg/kg / mean % effect relative to doxorubicin alone, all parameters (Vehicle): oxidized mice; for mean % effect relative to doxorubicin alone, all parameters (Vehicle): computed as a function of the vehicle
Method: The assay was carried out on compounds (1)-(5) and (7)-(11) and on edaravone (E) as comparative compound.
(§1) 10 mice were used for each treatment group. For each compound 50 mg/kg were administered intraperitoneally (IP) for three consecutive days (day 0, 1 and 2); half the animals (5) also received IP 16.7 mg/kg of doxorubicin immediately after the first treatment (day 0). On the day after the last administration (day 3) the animals were killed by neck dislocation and the brains were removed, weighed and frozen in liquid nitrogen.
(§2) For the analyses of oxidative stress, 100 mg/ml of brain homogenate was prepared in HEB^(*) buffer (pH 7.4 EDTA/HEPES^(**)) containing a mixture of enzyme inhibitors (Leupeptin, Pepstatin, Aprotinin, BHA).
(§3) The evaluation parameters were: • BrW/BWi: ratio between final brain weight and initial body weight (day 0); • Prot. Hmg: total proteins in the homogenate (BCA method, i.e. bicinchoninic acid); • Prot. Ox: oxidized proteins in the Hmg by means of a colorimetric method using dinitrophenylhydrazone (DNPH); • GSH: reduced glutathione in the supernatant (sn) of the Hmg, obtained after precipitation with metaphosphoric acid (MPA), by means of a colorimetric method using dithiodinitrobenzene (DTNB); • CAT: catalase in the Hmg by a colorimetric method using potassium dichromate; • SOD: superoxide dismutase by a colorimetric method using SOD Reagent (xanthine, EDTA, nitroblue tetrazole, Na2CO3, BSA, i.e. bovine serum albumin); • GST: glutathione S-transferase in the supernatant by a colorimetric method using chlorodinitrobenzene (CDNB) and GSH; and • GPx: glutathione peroxidase in the supernatant after addition of GSH and t-BuOOH, heating and precipitation with MPA; followed by GSH method with DTNB. The assay was performed on the compounds (1)-(5) and (7)-(11) and on edaravone (E), as comparative compound.
The mean effect (n=5 experiments) of doxorubicin (D), i.e. "oxidized" animal, relative to the vehicle (V), the vehicle representing the healthy animal.
All the parameters, with the exclusion of Brain/BWi and Prot. Hmg, were normalized for total Hmg proteins. The D value standard deviations and the % incidence relative to V are given in italics.
The effect of the tested compounds on the "oxidized" animals was given as % inhibition relative to the percentage change due to doxorubicin alone. The effect of the compounds on the oxidized animals can be expressed both as a function of the values of the vehicle (healthy, vehicle only) and as a function of the value of its own (healthy, compound only): • Vehicle: percentage [(Compound+D)/V]x100/[(V+D)/V]x100 • Its own: percentage [(Compound+D)/Compound]x100/[(V+D)/V]x100
Again in this case, the mean % effect relative to doxorubicin alone could be given for all the parameters simultaneously, as an approximate index of effectiveness on the cerebral oxidative state of the animal.

healthy animals = assay: Effect of the compounds on healthy animals (same in vivo assay, cerebral oxidative parameters); design: species or system mice; settings: for Average % variation with respect to the vehicle / Prot. Hmg: healthy mice; for Average % variation with respect to the vehicle: 50 mg/kg IP for three consecutive days, mean over all parameters, D = doxorubicin alone; for Average % variation with respect to the vehicle / Brain/BWi / CAT/pr / GPX/pr / GSH/pr / GST/pr / Prot. Ox/pr / SOD/pr: 50 mg/kg; for Prot. Hmg: 50 mg/kg IP x3 days, percentage change relative to the vehicle; for Brain/BWi / CAT/pr / GPX/pr / GSH/pr / GST/pr / Prot. Ox/pr / SOD/pr: mouse, in vivo, ip
Method: as §1, §2, §3
The mean % effect, on all the parameters simultaneously, of the triple treatment in healthy animal, as mean percentage change relative to the vehicle. This value is useful as an approximate safety index of the oxidative state of the brain, i.e. the capacity of the compounds of the invention not to alter cerebral homeostasis in healthy animals.

[3] = Brain-to-plasma concentration ratio in mice; type: in vivo, Female CD-1 mice; settings: female, CD-1, mouse, ip, 25 mg/kg intraperitoneal, area under the curve of brain and plasma concentrations 0 to 60 minutes, read-out: B/P ratio
Method: The ability of the compounds of the invention to penetrate the brain was investigated by measuring their brain/plasma (B/P) ratio in mice following intraperitoneal administration.
Female CD-1 mice were used (n=3 for each time period) and received the compounds of the invention by intraperitoneal administration, in 25 mg/kg doses in a 0.5% NaHCO3 buffer (pH 8.3). At predefined intervals following said administration, i.e. 5, 15, 30 and 60 minutes, the mice were killed and both plasma and total brain tissue were collected.
Specifically, after anaesthesia with ether, the animals were bled by blood withdrawal from the abdominal aorta then immediately decapitated. The blood samples were collected into plasma separator tubes containing Li-Heparin as anticoagulant and centrifuged. The resulting plasma was then stored at -20 °C. The brain was rapidly removed from the cranium and weighed, subsequently frozen and stored at -20 °C before treatment by homogenization and HPLC analysis.
The plasma was thawed and mixed with an equal volume of the extraction solution.
1 ml of solution was then extracted by adding 20 µl of 70% HClO4, then centrifuged at 15,500g for 5 minutes and injected into the HPLC.
Each brain was thawed and homogenized with the extraction solution to provide a final composition of 4 ml/1g of tissue by means of an Ultra-Turrax blender and sonicated for 5 minutes. After centrifugation of the homogenate at 15,500g for 5 minutes, the resulting solution was treated with HClO4, as indicated for the plasma. Specific chromatographic conditions had been developed for each analyte, the calibration curve being constructed for plasma and brain homogenate.

[4] = ip, compared with its own vehicle
[5] = ip, with respect to the vehicle
[6] = ip, % inhibition relative to change due to doxorubicin alone, vs its own, read-out: Brain/BWi its own
[7] = ip, % inhibition relative to change due to doxorubicin alone, vs its own, read-out: CAT/pr its own
[8] = ip, % inhibition relative to change due to doxorubicin alone, vs its own, read-out: GPX/pr its own
[9] = ip, % inhibition relative to change due to doxorubicin alone, vs its own, read-out: GSH/pr its own
[10] = ip, % inhibition relative to change due to doxorubicin alone, vs its own, read-out: GST/pr its own
[11] = ip, % inhibition relative to change due to doxorubicin alone, vs its own, read-out: Prot. Hmg its own
[12] = ip, % inhibition relative to change due to doxorubicin alone, vs its own, read-out: Prot. Ox/pr its own
[13] = ip, % inhibition relative to change due to doxorubicin alone, vs its own, read-out: SOD/pr its own
[14] = ip, % inhibition relative to change due to doxorubicin alone, vs vehicle, read-out: Brain/BWi vehicle
[15] = ip, % inhibition relative to change due to doxorubicin alone, vs vehicle, read-out: CAT/pr vehicle
[16] = ip, % inhibition relative to change due to doxorubicin alone, vs vehicle, read-out: GPX/pr vehicle
[17] = ip, % inhibition relative to change due to doxorubicin alone, vs vehicle, read-out: GSH/pr vehicle
[18] = ip, % inhibition relative to change due to doxorubicin alone, vs vehicle, read-out: GST/pr vehicle
[19] = ip, % inhibition relative to change due to doxorubicin alone, vs vehicle, read-out: Prot. Hmg vehicle
[20] = ip, % inhibition relative to change due to doxorubicin alone, vs vehicle, read-out: Prot. Ox/pr vehicle
[21] = ip, % inhibition relative to change due to doxorubicin alone, vs vehicle, read-out: SOD/pr vehicle
[22] = 50 mg/kg IP x3 days + doxorubicin, computed as a function of its own (healthy, compound only), read-out: mean % effect relative to doxorubicin alone, all parameters (Its own)
[23] = 50 mg/kg IP x3 days + doxorubicin

O=c1oc2ccccc2c(O)c1C1COCCN1O (stereo not shown) [(10), 4-hydroxy-3-(4-hydroxymorpholin-3-yl)-2H-chromen-2-one]
TEAC [1]: 1.4 | inhibition in vivo at 50 mg/kg [2, 4]: ~85% | inhibition in vivo at 50 mg/kg [2, 5]: ≥ 50% | change in vivo at 50 mg/kg [2, 6]: -65.2% | change in vivo at 50 mg/kg [2, 7]: -115% | change in vivo at 50 mg/kg [2, 8]: -117% | change in vivo at 50 mg/kg [2, 9]: -87.2% | change in vivo at 50 mg/kg [2, 10]: -128% | change in vivo at 50 mg/kg [2, 11]: -113% | change in vivo at 50 mg/kg [2, 12]: -45.3% | change in vivo at 50 mg/kg [2, 13]: -18.9% | change in vivo at 50 mg/kg [2, 14]: -73.9% | change in vivo at 50 mg/kg [2, 15]: -34.1% | change in vivo at 50 mg/kg [2, 16]: -103% | change in vivo at 50 mg/kg [2, 17]: -14.4% | change in vivo at 50 mg/kg [2, 18]: -84.6% | change in vivo at 50 mg/kg [2, 19]: -43.4% | change in vivo at 50 mg/kg [2, 20]: -32.6% | change in vivo at 50 mg/kg [2, 21]: 2.1% | change in vivo at 50 mg/kg [2, 22]: -86.2% | mean % effect relative to doxorubicin alone, all parameters (Vehicle) [2, 23]: -48.0% | Average % variation with respect to the vehicle (healthy animals): did not significantly alter the parameters | Average % variation with respect to the vehicle (healthy animals; listed as V+(10)): -4.4% | Prot. Hmg (healthy animals): 3.1% | Brain/BWi (healthy animals): -5.9% | CAT/pr (healthy animals): -8.2% | GPX/pr (healthy animals): -0.8% | GSH/pr (healthy animals): -3.2% | GST/pr (healthy animals): -1.2% | Prot. Ox/pr (healthy animals): 5.4% | SOD/pr (healthy animals): 2.1% | Kp [3]: > 0.1

CC1(C)CC(=O)C(C2COCCN2O)C(=O)C1 (stereo not shown) [(4), 2-(4-hydroxymorpholin-3-yl)-5,5-dimethylcyclohexane-1,3-dione]
TEAC [1]: 1.2 | inhibition in vivo at 50 mg/kg [2, 4]: ~85% | inhibition in vivo at 50 mg/kg [2, 5]: ≥ 50% | change in vivo at 50 mg/kg [2, 6]: -26.1% | change in vivo at 50 mg/kg [2, 7]: -102% | change in vivo at 50 mg/kg [2, 8]: -105% | change in vivo at 50 mg/kg [2, 9]: -77.6% | change in vivo at 50 mg/kg [2, 10]: -147% | change in vivo at 50 mg/kg [2, 11]: -106% | change in vivo at 50 mg/kg [2, 12]: 19.2% | change in vivo at 50 mg/kg [2, 13]: -68.5% | change in vivo at 50 mg/kg [2, 14]: -18.8% | change in vivo at 50 mg/kg [2, 15]: -94.7% | change in vivo at 50 mg/kg [2, 16]: -83.8% | change in vivo at 50 mg/kg [2, 17]: -34.4% | change in vivo at 50 mg/kg [2, 18]: -120% | change in vivo at 50 mg/kg [2, 19]: -80.7% | change in vivo at 50 mg/kg [2, 20]: -4.1% | change in vivo at 50 mg/kg [2, 21]: -28.7% | change in vivo at 50 mg/kg [2, 22]: -84.1% | mean % effect relative to doxorubicin alone, all parameters (Vehicle) [2, 23]: -58.1% | Average % variation with respect to the vehicle (healthy animals): did not significantly alter the parameters | Average % variation with respect to the vehicle (healthy animals; listed as V+(4)): -2.1% | Prot. Hmg (healthy animals): 1.9% | Brain/BWi (healthy animals): -0.1% | CAT/pr (healthy animals): -0.7% | GPX/pr (healthy animals): -2.0% | GSH/pr (healthy animals): -4.0% | GST/pr (healthy animals): -5.2% | Prot. Ox/pr (healthy animals): -3.0% | SOD/pr (healthy animals): -5.8% | Kp [3]: > 0.1
